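Step 1: Grow cells in 96-well plates. Step 2: Expose to compound for 48 hours at 5 concentrations. Step 3: Interpolate endpoints linearly; if unreached, use highest concentration. TGI: total growth inhibition.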
Experiments:
Experiment in all cases: DTP human tumour cell line panel, 48 h
ACHN renal = system: ACHN renal
NCI-H23 lung = system: NCI-H23 lung
KM12 colon = system: KM12 colon
UACC-62 melanoma = system: UACC-62 melanoma
HCT-116 colon = system: HCT-116 colon
EKVX NSCLC = system: EKVX NSCLC
SF-539 CNS = system: SF-539 CNS
COLO 205 colon = system: COLO 205 colon
NCI-H522 lung = system: NCI-H522 lung
NCI-H226 lung = system: NCI-H226 lung
CCRF-CEM leukemia = system: CCRF-CEM leukemia
SNB-19 CNS = system: SNB-19 CNS
RPMI-8226 leukemia = system: RPMI-8226 leukemia
OVCAR-3 ovarian = system: OVCAR-3 ovarian
HOP-62 NSCLC = system: HOP-62 NSCLC
A549 NSCLC = system: A549 NSCLC
SK-MEL-28 melanoma = system: SK-MEL-28 melanoma
OVCAR-8 ovarian = system: OVCAR-8 ovarian
K-562 leukemia = system: K-562 leukemia
MALME-3M melanoma = system: MALME-3M melanoma
M14 melanoma = system: M14 melanoma
SF-295 CNS = system: SF-295 CNS
TK-10 renal = system: TK-10 renal
OVCAR-5 ovarian = system: OVCAR-5 ovarian
SF-268 CNS = system: SF-268 CNS
SK-OV-3 ovarian = system: SK-OV-3 ovarian
U251 CNS = system: U251 CNS
KM20L2 colon = system: KM20L2 colon
SNB-75 CNS = system: SNB-75 CNS
A498 renal = system: A498 renal
HCC-2998 colon = system: HCC-2998 colon
786-0 renal = system: 786-0 renal
LOX IMVI melanoma = system: LOX IMVI melanoma
HCT-15 colon = system: HCT-15 colon
RXF 393 renal = system: RXF 393 renal
SR leukemia = system: SR leukemia
HL-60(TB) leukemia = system: HL-60(TB) leukemia
UACC-257 melanoma = system: UACC-257 melanoma
SN12C renal = system: SN12C renal
IGROV1 ovarian = system: IGROV1 ovarian
UO-31 renal = system: UO-31 renal
SW-620 colon = system: SW-620 colon
NCI-H460 lung = system: NCI-H460 lung
MOLT-4 leukemia = system: MOLT-4 leukemia
SK-MEL-5 melanoma = system: SK-MEL-5 melanoma
PC-3 prostate = system: PC-3 prostate
HOP-92 NSCLC = system: HOP-92 NSCLC
CAKI-1 renal = system: CAKI-1 renal
MDA-MB-435 = system: MDA-MB-435
BT-549 breast = system: BT-549 breast
MDA-N = system: MDA-N
MCF7 breast = system: MCF7 breast
OVCAR-4 ovarian = system: OVCAR-4 ovarian
HT29 colon = system: HT29 colon
MDA-MB-231 breast = system: MDA-MB-231 breast
NCI/ADR-RES ovarian = system: NCI/ADR-RES ovarian
DU-145 prostate = system: DU-145 prostate
T-47D breast = system: T-47D breast
SK-MEL-2 melanoma = system: SK-MEL-2 melanoma
HS 578T breast = system: HS 578T breast

CC(=O)[O-].CC(=O)[O-].O=C(N/N=C/c1cc(Cl)cc(Cl)c1[OH2+])c1ccncc1.[Zn+2]
TGI (ACHN renal): > 100 µM
TGI (NCI-H23 lung): > 100 µM
TGI (KM12 colon): > 100 µM
TGI (UACC-62 melanoma): > 100 µM
TGI (HCT-116 colon): > 100 µM
TGI (EKVX NSCLC): > 100 µM
TGI (SF-539 CNS): > 100 µM
TGI (COLO 205 colon): > 100 µM
TGI (NCI-H522 lung): > 100 µM
TGI (NCI-H226 lung): > 100 µM
TGI (CCRF-CEM leukemia): > 100 µM
TGI (SNB-19 CNS): > 100 µM
TGI (RPMI-8226 leukemia): > 100 µM
TGI (OVCAR-3 ovarian): 94.8 µM
TGI (HOP-62 NSCLC): > 100 µM
TGI (A549 NSCLC): > 100 µM
TGI (SK-MEL-28 melanoma): > 100 µM
TGI (OVCAR-8 ovarian): > 100 µM
TGI (K-562 leukemia): > 100 µM
TGI (MALME-3M melanoma): > 100 µM
TGI (M14 melanoma): > 100 µM
TGI (SF-295 CNS): > 100 µM
TGI (TK-10 renal): > 100 µM
TGI (OVCAR-5 ovarian): > 100 µM
TGI (SF-268 CNS): > 100 µM
TGI (SK-OV-3 ovarian): > 100 µM
TGI (U251 CNS): > 100 µM
TGI (KM20L2 colon): > 100 µM
TGI (SNB-75 CNS): > 100 µM
TGI (A498 renal): > 100 µM
TGI (HCC-2998 colon): > 100 µM
TGI (786-0 renal): > 100 µM
TGI (LOX IMVI melanoma): > 100 µM
TGI (HCT-15 colon): > 100 µM
TGI (RXF 393 renal): > 100 µM
TGI (SR leukemia): > 100 µM
TGI (HL-60(TB) leukemia): > 100 µM
TGI (UACC-257 melanoma): > 100 µM
TGI (SN12C renal): > 100 µM
TGI (IGROV1 ovarian): > 100 µM
TGI (UO-31 renal): > 100 µM
TGI (SW-620 colon): > 100 µM
TGI (NCI-H460 lung): > 100 µM
TGI (MOLT-4 leukemia): > 100 µM
TGI (SK-MEL-5 melanoma): > 100 µM

O=C1c2ccccc2C(=O)c2c1oc(=O)c1ccccc21
TGI (ACHN renal): 11.1 µM
TGI (PC-3 prostate): 19.2 µM
TGI (NCI-H23 lung): 10.6 µM
TGI (KM12 colon): 12.8 µM
TGI (HOP-92 NSCLC): 11.9 µM
TGI (UACC-62 melanoma): 8.36 µM
TGI (HCT-116 colon): 4.27 µM
TGI (EKVX NSCLC): 14.3 µM
TGI (SF-539 CNS): > 25 µM
TGI (COLO 205 colon): 24.7 µM
TGI (CAKI-1 renal): 15.5 µM
TGI (MDA-MB-435): 3.61 µM
TGI (NCI-H522 lung): 9.73 µM
TGI (BT-549 breast): 9.2 µM
TGI (NCI-H226 lung): 21.2 µM
TGI (CCRF-CEM leukemia): 16 µM
TGI (SNB-19 CNS): > 25 µM
TGI (RPMI-8226 leukemia): 19.2 µM
TGI (OVCAR-3 ovarian): 3.61 µM
TGI (HOP-62 NSCLC): 24.6 µM
TGI (A549 NSCLC): > 25 µM
TGI (SK-MEL-28 melanoma): 17 µM
TGI (OVCAR-8 ovarian): 15.1 µM
TGI (K-562 leukemia): 17.9 µM
TGI (MALME-3M melanoma): 5.79 µM
TGI (M14 melanoma): 16.1 µM
TGI (MDA-N): 5.7 µM
TGI (SF-295 CNS): 7.41 µM
TGI (MCF7 breast): 13.6 µM
TGI (TK-10 renal): 18.9 µM
TGI (OVCAR-5 ovarian): 14.4 µM
TGI (SF-268 CNS): 19.7 µM
TGI (SK-OV-3 ovarian): > 25 µM
TGI (U251 CNS): 12.2 µM
TGI (OVCAR-4 ovarian): 3.56 µM
TGI (HT29 colon): 13 µM
TGI (SNB-75 CNS): 12.3 µM
TGI (A498 renal): > 25 µM
TGI (HCC-2998 colon): 6.96 µM
TGI (786-0 renal): 14 µM
TGI (LOX IMVI melanoma): 9.9 µM
TGI (HCT-15 colon): 7.5 µM
TGI (MDA-MB-231 breast): 13.8 µM
TGI (RXF 393 renal): 9.62 µM
TGI (SR leukemia): 21.3 µM
TGI (NCI/ADR-RES ovarian): 10.2 µM
TGI (HL-60(TB) leukemia): 1.71 µM
TGI (UACC-257 melanoma): 6.75 µM
TGI (SN12C renal): 7.91 µM
TGI (IGROV1 ovarian): 10.4 µM
TGI (DU-145 prostate): 14 µM
TGI (UO-31 renal): 11.4 µM
TGI (SW-620 colon): > 25 µM
TGI (NCI-H460 lung): 10.9 µM
TGI (T-47D breast): 13.9 µM
TGI (SK-MEL-2 melanoma): 10.1 µM
TGI (HS 578T breast): 23.2 µM
TGI (MOLT-4 leukemia): 12.5 µM
TGI (SK-MEL-5 melanoma): 4.51 µM
